Data taken from US6610694B1, “Condensed pyridazine compounds, their production and use” (Takeda Chemical Industries, Ltd., priority 1998, dated 2003).

What was measured:
[1] = tested on: histamine-induced skin reactions in guinea pigs; experiment: Effect on histamine-induced skin reactions in guinea pigs (skin vascular permeability); assay type: in vivo, guinea pig; settings: oral 3 mg/kg
Protocol: Effect on Histamine-induced Skin Reactions in Guinea Pigs
Male Hartley guinea pigs weighing about 500 g were used. After the dorsal hair was shaved under ether anesthesia, 1 ml of a 2.5% pontamine sky blue solution was injected intravenously administered, and then 0.1 ml of histamine at 3 μg/ml was injected intradermally into 2 sites (left and right) in the back. Thirty minutes after the injection of histamine, the animals were killed by bleeding and the skin was removed. Two perpendicular diameters (mm) of each blue spot on the inside of the skin were measured and multiplied; the mean for the two products was taken as the microvascular permeability index. Test compounds were suspended in a 5% gum arabic solution and orally administered in a volume of 0.2 ml/100 g body weight 1 hour before histamine administration. Animals in the control group received the same volume of a 5% gum arabic solution. The suppression rate of the sample for the title reaction was calculated using Equation 1, and the results are given in Table 1.
Inhibition (%) of histamine-induced skin reactions=100×(1−vascular permeability index in the presence of drug/vascular permeability index in control group) Equation 1
In the same manner as Experimental Example 1a, the effects of various example compounds on histamine-induced skin reactions in guinea pigs were examined.

guinea pig eosinophils = experiment: Suppression of LTB4-induced chemotactic reaction in guinea pig eosinophils; assay type: cell-based
Protocol: 1) Preparation of Guinea Pig Eosinophils
To male Hartley guinea pigs, 2 ml of equine serum (Bio-Whittaker, Inc.) was intraperitoneally administered once weekly for 8 consecutive weeks. At 48 hours after final administration, 75 ml of physiological saline was intraperitoneally injected, after which the saline was recovered and centrifuged at 400×g for 5 minutes. The resulting sediment was suspended in 5 ml of Percoll solution (density (d)=1.07) and layered on top of the multiple layers of different densities of Percoll solution (density(d)=1.112, 5 ml; d=1.095, 10 ml; d=1.090, 10 ml; d=1.085, 5 ml), followed by centrifugation at 1,000×g for 25 minutes (20° C.). The cell layer formed at the interface between densities 1.112 and 1.095 was collected. Erythrocytes present in the collected cell sediment were removed by hypotonic treatment (suspended in water for […]).
The cell sediment was washed 3 times with Hanks' solution containing 10 mM Hepes (Dojin Kagaku) (Hanks-Hepes) and suspended in a Hanks-Hepes solution containing 2% human serum albumin (Wako Pure Chemical Industry or Sigma) (Hanks-Hepes-HSA) to a final concentration of 5.56×10^6 cells/ml. Eosinophil purity was 90%, viability being over 98%.
2) Determination of Chemotactic Reaction Suppression
To a 24-well petri dish, which serves as a lower chamber, 600 μl of Hanks-Hepes-HSA solution containing LTB4 (final concentration 10^−8 M, Cascade Biochemical Ltd.), was transferred, followed by incubation at 37° C. for 30 minutes in a carbon dioxide incubator. Separately, 200 μl of eosinophil suspension (5×10^6 cells/ml), previously incubated at 37 C for 15 minutes, was added to Chemotaxicell (polycarbonate membrane, pore size 3 μm, thickness 10 μm), which serves as an upper chamber, after the upper chamber was attached to the 24-well petri dish. After 2 hours of reaction in the CO2 incubator, the Chemotaxicell was removed; 60 μl of a 2% (w/v) solution of EDTA in physiological saline was added to the liquid in the lower chamber. After the mixture was on cooled ice, the cells migrating into the lower chamber were counted using a blood cell counter [Coulter Counter (trade name)]. The test drug, dissolved in N,N-dimethyl formamide (DMF), was added to both the upper and lower chambers to a final concentration of 10^-5 M.
Chemotactic reaction suppression rate=[1−(number of migrating cells in the presence of drug/number of migrating cells in the absence of drug).]×100 Equation 2
Suppression rates of LTB4-induced chemotactic reaction by test substances (1×10^−5 M) were calculated using the above equation.
In the same manner as Experimental Example 2a, the percent suppression of LTB4-induced chemotactic reactions by various example compounds was calculated.

[2] = same manner as Experimental Example 1a, Table 3
[3] = LTB4-induced chemotaxis, same manner as Experimental Example 2a (1×10^−5 M), Table 4
[4] = 1 hour before intradermal histamine, Table 1
[5] = LTB4 10^−8 M-induced chemotaxis, test substance 1×10^−5 M, Table 2

| Structure (SMILES) | melting point | Suppression (%) of histamine-induced skin vascular permeability elevation, oral administration at 3 mg/kg [1, 2] | Suppression rate (%) (guinea pig eosinophils; [3]) | Suppression (%) of histamine-induced skin vascular permeability elevation, oral administration at 3 mg/kg [1, 4] | Suppression rate (%) (guinea pig eosinophils; [5]) |
| --- | --- | --- | --- | --- | --- |
| c1ccc(C(OC2CCN(CCCCCCNc3ccc4nncn4n3)CC2)c2ccccc2)cc1 [Example 10a, 6-[6-[4-(Diphenylmethoxy)piperidino]hexylamino][1,2,4]triazolo[4,3-b]pyridazine] | 124 to 127 °C |  |  | 91% | 60% |
| CC(C)(C)c1nnc2ccc(OCCCN3CCC(OC(c4ccccc4)c4ccccc4)CC3)nn12 [Example 13a, 3-tert-Butyl-6-[3-[4-(diphenylmethoxy)piperidino]propoxy][1,2,4]triazolo[4.3-b]pyridazine] |  |  |  | 79% | 41% |

Now from value to compound, other results behind:

| melting point | Structure (SMILES) | Suppression (%) of histamine-induced skin vascular permeability elevation, oral administration at 3 mg/kg [1, 2] | Suppression rate (%) (guinea pig eosinophils; [3]) | Suppression (%) of histamine-induced skin vascular permeability elevation, oral administration at 3 mg/kg [1, 4] | Suppression rate (%) (guinea pig eosinophils; [5]) |
| --- | --- | --- | --- | --- | --- |
| 137 to 139 °C | CCOC(=O)Cn1nc2ccc(NCCCN3CCC(OC(c4ccccc4)c4ccccc4)CC3)nn2c1=O [Example 7b, ethyl 2-[6-[3-[4-(Diphenylmethoxy)piperidino]propylamino]-3-oxo[1,2,4]triazolo[4,3-b]pyridazin-2(3H)-yl]acetate] | 89% | 26% |  |  |
| 102 to 104 °C | O=C(O)c1nnc2ccc(NCCCN3CCC(OC(c4ccccc4)c4ccccc4)CC3)nn12 [Example 22a, 6-[3-[4-(Diphenylmethoxy)piperidino]propylamino][1,2,4]triazolo[4,3-b]pyridazine-3-carboxylic Acid] |  |  | 86% | 50% |
| 162 °C | CCOC(=O)C(C)(C)n1nc2ccc(NCCCN3CCC(OC(c4ccccc4)c4ccccc4)CC3)nn2c1=O.Cl [Example 8b, Ethyl 2-[6-[3-[4-(Diphenylmethoxy)piperidino]propylamino]-3-oxo[1,2,4]triazolo[4,3-b]pyridazin-2(3H)-yl]-2-methylpropionate Hydrochloride] | 74% | 57% |  |  |
